Reference: the NIST ThermoML archive (doi:10.1016/j.jct.2015.12.027)
Numbers after ± are expanded uncertainties.

Key:
[1] = xn = mol fraction of the nth substance listed; conditions: 81.5 kPa, Liquid, Vibrating tube method
[2] = refractive index (Na D-line) (dimensionless); xn = mol fraction of the nth substance listed; conditions: 81.5 kPa, Liquid, Standard Abbe refractometry

## ClCCCl [1,2-dichloroethane] + c1ccccc1
[1]; 293.15 K, x1 = 0.1002
  mass density: 911.76 ± 10 kg/m3
[1]; 293.15 K, x1 = 0.207
  mass density: 947.74 ± 10 kg/m3
[1]; 293.15 K, x1 = 0.3043
  mass density: 981.38 ± 10 kg/m3
[1]; 293.15 K, x1 = 0.4032
  mass density: 1016.56 ± 10 kg/m3
[1]; 293.15 K, x1 = 0.5005
  mass density: 1052.14 ± 10 kg/m3
[1]; 293.15 K, x1 = 0.5975
  mass density: 1088.72 ± 10 kg/m3
[1]; 293.15 K, x1 = 0.7235
  mass density: 1137.85 ± 10 kg/m3
[1]; 293.15 K, x1 = 0.8005
  mass density: 1168.91 ± 10 kg/m3
[1]; 293.15 K, x1 = 0.8918
  mass density: 1206.83 ± 10 kg/m3
[1]; 293.15 K, x1 = 1
  mass density: 1252.82 ± 10 kg/m3
[1]; 303.15 K, x1 = 0.1002
  mass density: 900.68 ± 10 kg/m3
[1]; 303.15 K, x1 = 0.207
  mass density: 936.23 ± 10 kg/m3
[1]; 303.15 K, x1 = 0.3043
  mass density: 969.5 ± 10 kg/m3
[1]; 303.15 K, x1 = 0.4032
  mass density: 1004.31 ± 10 kg/m3
[1]; 303.15 K, x1 = 0.5005
  mass density: 1039.52 ± 10 kg/m3
[1]; 303.15 K, x1 = 0.5975
  mass density: 1075.72 ± 10 kg/m3
[1]; 303.15 K, x1 = 0.7235
  mass density: 1124.32 ± 10 kg/m3
[1]; 303.15 K, x1 = 0.8005
  mass density: 1155.04 ± 10 kg/m3
[1]; 303.15 K, x1 = 0.8918
  mass density: 1192.59 ± 10 kg/m3
[1]; 303.15 K, x1 = 1
  mass density: 1238.27 ± 10 kg/m3
[1]; 313.15 K, x1 = 0.1002
  mass density: 889.51 ± 10 kg/m3
[1]; 313.15 K, x1 = 0.207
  mass density: 924.62 ± 10 kg/m3
[1]; 313.15 K, x1 = 0.3043
  mass density: 957.49 ± 10 kg/m3
[1]; 313.15 K, x1 = 0.4032
  mass density: 991.92 ± 10 kg/m3
[1]; 313.15 K, x1 = 0.5005
  mass density: 1026.72 ± 10 kg/m3
[1]; 313.15 K, x1 = 0.5975
  mass density: 1062.52 ± 10 kg/m3
[1]; 313.15 K, x1 = 0.7235
  mass density: 1110.59 ± 10 kg/m3
[1]; 313.15 K, x1 = 0.8005
  mass density: 1140.95 ± 10 kg/m3
[1]; 313.15 K, x1 = 0.8918
  mass density: 1178.02 ± 10 kg/m3
[1]; 313.15 K, x1 = 1
  mass density: 1223.53 ± 10 kg/m3
[1]; 323.15 K, x1 = 0.1002
  mass density: 878.27 ± 10 kg/m3
[1]; 323.15 K, x1 = 0.207
  mass density: 912.92 ± 10 kg/m3
[1]; 323.15 K, x1 = 0.3043
  mass density: 945.42 ± 10 kg/m3
[1]; 323.15 K, x1 = 0.4032
  mass density: 979.41 ± 10 kg/m3
[1]; 323.15 K, x1 = 0.5005
  mass density: 1013.82 ± 10 kg/m3
[1]; 323.15 K, x1 = 0.5975
  mass density: 1049.18 ± 10 kg/m3
[1]; 323.15 K, x1 = 0.7235
  mass density: 1096.67 ± 10 kg/m3
[1]; 323.15 K, x1 = 0.8005
  mass density: 1126.76 ± 10 kg/m3
[1]; 323.15 K, x1 = 0.8918
  mass density: 1163.49 ± 10 kg/m3
[1]; 323.15 K, x1 = 1
  mass density: 1208.61 ± 10 kg/m3
[1]; 333.15 K, x1 = 0.1002
  mass density: 866.86 ± 10 kg/m3
[1]; 333.15 K, x1 = 0.207
  mass density: 901.08 ± 10 kg/m3
[1]; 333.15 K, x1 = 0.3043
  mass density: 933.17 ± 10 kg/m3
[1]; 333.15 K, x1 = 0.4032
  mass density: 966.77 ± 10 kg/m3
[1]; 333.15 K, x1 = 0.5005
  mass density: 1000.75 ± 10 kg/m3
[1]; 333.15 K, x1 = 0.5975
  mass density: 1035.66 ± 10 kg/m3
[1]; 333.15 K, x1 = 0.7235
  mass density: 1082.64 ± 10 kg/m3
[1]; 333.15 K, x1 = 0.8005
  mass density: 1112.37 ± 10 kg/m3
[1]; 333.15 K, x1 = 0.8918
  mass density: 1148.78 ± 10 kg/m3
[1]; 333.15 K, x1 = 1
  mass density: 1193.61 ± 10 kg/m3
[2]; 293.15 K, x1 = 0.1002
  refractive index: 1.49506 ± 0.01
[2]; 293.15 K, x1 = 0.207
  refractive index: 1.48849 ± 0.01
[2]; 293.15 K, x1 = 0.3043
  refractive index: 1.48263 ± 0.01
[2]; 293.15 K, x1 = 0.4032
  refractive index: 1.47684 ± 0.01
[2]; 293.15 K, x1 = 0.5005
  refractive index: 1.47135 ± 0.01
[2]; 293.15 K, x1 = 0.5975
  refractive index: 1.46605 ± 0.01
[2]; 293.15 K, x1 = 0.7235
  refractive index: 1.45935 ± 0.01
[2]; 293.15 K, x1 = 0.8005
  refractive index: 1.45531 ± 0.01
[2]; 293.15 K, x1 = 0.8918
  refractive index: 1.4505 ± 0.01
[2]; 293.15 K, x1 = 1
  refractive index: 1.44472 ± 0.01
[2]; 303.15 K, x1 = 0.1002
  refractive index: 1.48919 ± 0.01
[2]; 303.15 K, x1 = 0.207
  refractive index: 1.48273 ± 0.01
[2]; 303.15 K, x1 = 0.3043
  refractive index: 1.47694 ± 0.01
[2]; 303.15 K, x1 = 0.4032
  refractive index: 1.47123 ± 0.01
[2]; 303.15 K, x1 = 0.5005
  refractive index: 1.46581 ± 0.01
[2]; 303.15 K, x1 = 0.5975
  refractive index: 1.46058 ± 0.01
[2]; 303.15 K, x1 = 0.7235
  refractive index: 1.45396 ± 0.01
[2]; 303.15 K, x1 = 0.8005
  refractive index: 1.44995 ± 0.01
[2]; 303.15 K, x1 = 0.8918
  refractive index: 1.44519 ± 0.01
[2]; 303.15 K, x1 = 1
  refractive index: 1.43948 ± 0.01
[2]; 313.15 K, x1 = 0.1002
  refractive index: 1.48273 ± 0.01
[2]; 313.15 K, x1 = 0.207
  refractive index: 1.47644 ± 0.01
[2]; 313.15 K, x1 = 0.3043
  refractive index: 1.47079 ± 0.01
[2]; 313.15 K, x1 = 0.4032
  refractive index: 1.46522 ± 0.01
[2]; 313.15 K, x1 = 0.5005
  refractive index: 1.45994 ± 0.01
[2]; 313.15 K, x1 = 0.5975
  refractive index: 1.45484 ± 0.01
[2]; 313.15 K, x1 = 0.7235
  refractive index: 1.44838 ± 0.01
[2]; 313.15 K, x1 = 0.8005
  refractive index: 1.44445 ± 0.01
[2]; 313.15 K, x1 = 0.8918
  refractive index: 1.43979 ± 0.01
[2]; 313.15 K, x1 = 1
  refractive index: 1.43423 ± 0.01
[2]; 323.15 K, x1 = 0.1002
  refractive index: 1.477 ± 0.01
[2]; 323.15 K, x1 = 0.207
  refractive index: 1.4708 ± 0.01
[2]; 323.15 K, x1 = 0.3043
  refractive index: 1.46522 ± 0.01
[2]; 323.15 K, x1 = 0.4032
  refractive index: 1.45971 ± 0.01
[2]; 323.15 K, x1 = 0.5005
  refractive index: 1.45449 ± 0.01
[2]; 323.15 K, x1 = 0.5975
  refractive index: 1.44943 ± 0.01
[2]; 323.15 K, x1 = 0.7235
  refractive index: 1.44302 ± 0.01
[2]; 323.15 K, x1 = 0.8005
  refractive index: 1.43912 ± 0.01
[2]; 323.15 K, x1 = 0.8918
  refractive index: 1.43449 ± 0.01
[2]; 323.15 K, x1 = 1
  refractive index: 1.42897 ± 0.01
[2]; 333.15 K, x1 = 0.1002
  refractive index: 1.47091 ± 0.01
[2]; 333.15 K, x1 = 0.207
  refractive index: 1.46486 ± 0.01
[2]; 333.15 K, x1 = 0.3043
  refractive index: 1.45939 ± 0.01
[2]; 333.15 K, x1 = 0.4032
  refractive index: 1.45398 ± 0.01
[2]; 333.15 K, x1 = 0.5005
  refractive index: 1.44884 ± 0.01
[2]; 333.15 K, x1 = 0.5975
  refractive index: 1.44387 ± 0.01
[2]; 333.15 K, x1 = 0.7235
  refractive index: 1.43756 ± 0.01
[2]; 333.15 K, x1 = 0.8005
  refractive index: 1.43372 ± 0.01
[2]; 333.15 K, x1 = 0.8918
  refractive index: 1.42916 ± 0.01
[2]; 333.15 K, x1 = 1
  refractive index: 1.42373 ± 0.01
